Data on 12 molecules can be found in PubChem BioAssay (NCI).

Test systems include MCF7 breast; HCT-15 colon; A498 renal; COLO 205 colon; NCI-H226 lung; UO-31 renal; HCT-116 colon; OVCAR-5 ovarian; MOLT-4 leukemia; A549 NSCLC; CCRF-CEM leukemia; 786-0 renal; HS 578T breast.
What all share (test): NCI tumour cell line growth inhibition, 48 h

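Five compound concentrations were applied to cells in 96-well plates for 48 hours; endpoints were derived by simple linear interpolation of the resulting dose-response curve. TGI is the concentration that stops growth completely.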

As to `O=C(CCN1CCOCC1)C(=Cc1ccccc1)C(=O)CCN1CCOCC1`, the TGI with MCF7 breast was 13.4 µM; with HCT-15 colon, 4.74 µM; in the experiment on A498 renal, 31.4 µM; with COLO 205 colon it was 6.97 µM; in the experiment with NCI-H226 lung, 29.4 µM; in the experiment with UO-31 renal it was 27.6 µM. For the same molecule, the TGI in the experiment with HCT-116 colon came out at 5.5 µM; with OVCAR-5 ovarian, 33.6 µM; with MOLT-4 leukemia, 3.09 µM; in the experiment on A549 NSCLC, 35.8 µM; with CCRF-CEM leukemia, 7.84 µM.

As to `COc1cccc(-c2nc(-c3cnccn3)n(COCCO)n2)c1`, the TGI in the experiment with MCF7 breast, with HCT-15 colon, in the experiment on COLO 205 colon, in the experiment on 786-0 renal, in the experiment on UO-31 renal and in the experiment on HCT-116 colon was > 100 µM in each case. Besides, the TGI with OVCAR-5 ovarian, with MOLT-4 leukemia, in the experiment on A549 NSCLC and in the experiment on CCRF-CEM leukemia was > 100 µM each time.

Consider `CC(C)(C)S(=O)OC12CC3CC(CC(C3)C1)C2` (stereo not given), for which the TGI with HCT-15 colon, with COLO 205 colon, in the experiment with NCI-H226 lung, in the experiment with 786-0 renal, with UO-31 renal and with HCT-116 colon was > 100 µM in each case. The TGI with OVCAR-5 ovarian, in the experiment with MOLT-4 leukemia, in the experiment with A549 NSCLC and in the experiment on CCRF-CEM leukemia was > 100 µM in each case.

As for `c1ccc(CC2(c3cc4ccccc4[nH]3)OCCO2)nc1`, the TGI in the experiment on HCT-15 colon, in the experiment with A498 renal, in the experiment with COLO 205 colon, with NCI-H226 lung, with HS 578T breast and with 786-0 renal was > 100 µM each time. Also, the TGI with UO-31 renal, in the experiment with HCT-116 colon, with OVCAR-5 ovarian, in the experiment with MOLT-4 leukemia, with A549 NSCLC and in the experiment on CCRF-CEM leukemia was > 100 µM each time.

Regarding `CC(C)(C)OC(=O)N(CCCCNCc1ccc2ccccc2c1)CCCNCc1ccc2ccccc2c1`, the TGI amounted to 3.12 µM with HCT-15 colon; 3.47 µM in the experiment on A498 renal; 2.72 µM with COLO 205 colon; 3.08 µM with NCI-H226 lung; 3.3 µM in the experiment with HS 578T breast; 2.8 µM with 786-0 renal. The TGI came to 3.17 µM with UO-31 renal; 2.4 µM with HCT-116 colon; 3.22 µM with OVCAR-5 ovarian; 2.28 µM with MOLT-4 leukemia; 3.82 µM in the experiment on A549 NSCLC; 2.86 µM in the experiment with CCRF-CEM leukemia.

Consider `COc1ccc2c(c1)CCC(OS(=O)(=O)CC13CCC(CC1=O)C3(C)C)C2=O` (stereo not given), for which the TGI is 92 µM in the experiment with HCT-15 colon; 39.1 µM with A498 renal; 91.9 µM with COLO 205 colon; 65.2 µM with NCI-H226 lung; 40.4 µM in the experiment on 786-0 renal; > 100 µM with UO-31 renal. In addition, the TGI in the experiment with HCT-116 colon was 53.3 µM; with OVCAR-5 ovarian, > 100 µM; in the experiment on MOLT-4 leukemia, 55.9 µM; with A549 NSCLC it was 78 µM; with CCRF-CEM leukemia, > 100 µM.

In the case of `COc1ccc(NC2CC(C)N(C(=O)c3ccccc3)O2)cc1` (stereo not given), the TGI in the experiment on MCF7 breast, with HCT-15 colon, with COLO 205 colon, in the experiment with HS 578T breast, in the experiment on 786-0 renal and with UO-31 renal was > 10 µM each time. Moreover, the TGI with HCT-116 colon, in the experiment on OVCAR-5 ovarian, in the experiment on MOLT-4 leukemia, in the experiment with A549 NSCLC and in the experiment on CCRF-CEM leukemia was > 10 µM each time.

Take `Cn1c2ccccc2c(=O)c2[nH]c3ccccc3c21`: the TGI in the experiment with MCF7 breast, with HCT-15 colon, with A498 renal, in the experiment on COLO 205 colon, in the experiment with NCI-H226 lung and in the experiment on 786-0 renal was > 100 µM each time. Also, the TGI with UO-31 renal was > 100 µM; in the experiment with HCT-116 colon it was > 100 µM; in the experiment on OVCAR-5 ovarian it was > 100 µM; in the experiment on MOLT-4 leukemia it was 75.9 µM; in the experiment with A549 NSCLC it was > 100 µM; in the experiment with CCRF-CEM leukemia, > 100 µM.

As for `CC(=O)ON(C(C)=O)c1ccc(-c2nc3ccccc3s2)cc1C`, the TGI with HCT-15 colon is > 100 µM; with A498 renal, 16.9 µM; in the experiment with COLO 205 colon, > 100 µM; in the experiment on NCI-H226 lung, > 100 µM; in the experiment with HS 578T breast, > 100 µM; with 786-0 renal, > 100 µM. The TGI in the experiment with UO-31 renal was > 100 µM; in the experiment with HCT-116 colon it was > 100 µM; with OVCAR-5 ovarian, 55.2 µM; in the experiment on MOLT-4 leukemia, > 100 µM; in the experiment with A549 NSCLC, > 100 µM; with CCRF-CEM leukemia, > 100 µM.

For `COC(=O)c1c(-c2ccccc2)c2sc3ccccc3n2c1N`, the TGI is > 100 µM in the experiment with MCF7 breast; > 100 µM in the experiment on HCT-15 colon; 91.1 µM with A498 renal; 97 µM with COLO 205 colon; > 100 µM in the experiment with NCI-H226 lung; > 100 µM with 786-0 renal. The TGI with UO-31 renal, in the experiment with HCT-116 colon, in the experiment on OVCAR-5 ovarian, in the experiment with A549 NSCLC and in the experiment with CCRF-CEM leukemia was > 100 µM each time.

For `C=CCN1CN(c2ccccc2)C2(CCN(CCCC3(c4ccc(F)cc4)OCCO3)CC2)C1=O`, the TGI with MCF7 breast is 30.5 µM; in the experiment with HCT-15 colon, 25.7 µM; in the experiment on COLO 205 colon, 37.9 µM; in the experiment on NCI-H226 lung it was 36.2 µM; in the experiment on 786-0 renal, 33.6 µM; with UO-31 renal, 22.3 µM. The TGI with HCT-116 colon came out at 28.4 µM; with OVCAR-5 ovarian, 23.8 µM; in the experiment with MOLT-4 leukemia it was 39.6 µM; in the experiment on A549 NSCLC, 42.9 µM; in the experiment on CCRF-CEM leukemia it was 41.4 µM.

Consider `COc1cc(C2C(Cl)C(=O)N2NC(=O)c2ccc(NC(C)=O)cc2OC)ccc1O` (stereo not given), for which the TGI stood at 38.1 µM in the experiment on MCF7 breast; 40.6 µM with HCT-15 colon; 37.5 µM in the experiment with A498 renal; 32 µM in the experiment on COLO 205 colon; 43.7 µM with NCI-H226 lung; 33.3 µM in the experiment on 786-0 renal. Moreover, the TGI in the experiment with UO-31 renal is 95.5 µM; in the experiment with HCT-116 colon, 33.2 µM; with OVCAR-5 ovarian, 28.4 µM; with MOLT-4 leukemia, 22.1 µM; in the experiment with A549 NSCLC, > 100 µM; in the experiment on CCRF-CEM leukemia, 14.6 µM.
